# Test results published in ChEMBL document CHEMBL4840323, “Discovery of an Orally Bioavailable Small-Molecule Inhibitor for the β-Catenin/B-Cell Lymphoma 9 Protein-Protein Interaction” (J Med Chem, 2021).
# Target: T1, beta-catenin-B-cell lymphoma 9 protein complex (Homo sapiens, UniProt P35222)
# T1 sequence (P35222 whole entry): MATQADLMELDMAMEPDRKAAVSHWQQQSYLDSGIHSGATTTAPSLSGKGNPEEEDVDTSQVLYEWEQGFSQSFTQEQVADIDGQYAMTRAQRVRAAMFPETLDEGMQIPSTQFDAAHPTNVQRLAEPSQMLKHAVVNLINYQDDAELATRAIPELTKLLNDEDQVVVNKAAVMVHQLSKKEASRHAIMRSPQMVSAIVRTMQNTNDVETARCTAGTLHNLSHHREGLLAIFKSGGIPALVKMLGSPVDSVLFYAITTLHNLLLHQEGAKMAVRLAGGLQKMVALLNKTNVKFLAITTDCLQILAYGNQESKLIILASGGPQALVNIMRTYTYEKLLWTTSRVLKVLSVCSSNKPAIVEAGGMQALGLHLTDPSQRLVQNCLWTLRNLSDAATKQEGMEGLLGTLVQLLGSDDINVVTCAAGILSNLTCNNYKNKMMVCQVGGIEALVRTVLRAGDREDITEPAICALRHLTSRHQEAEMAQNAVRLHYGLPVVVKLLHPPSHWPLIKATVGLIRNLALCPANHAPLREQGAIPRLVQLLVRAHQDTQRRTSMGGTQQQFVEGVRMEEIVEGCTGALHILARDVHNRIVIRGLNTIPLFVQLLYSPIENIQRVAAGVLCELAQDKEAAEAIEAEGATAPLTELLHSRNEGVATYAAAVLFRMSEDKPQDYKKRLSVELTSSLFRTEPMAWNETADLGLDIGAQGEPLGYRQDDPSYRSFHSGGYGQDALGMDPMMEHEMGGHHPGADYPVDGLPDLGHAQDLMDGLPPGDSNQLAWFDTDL
# T1 sequence (O00512 whole entry): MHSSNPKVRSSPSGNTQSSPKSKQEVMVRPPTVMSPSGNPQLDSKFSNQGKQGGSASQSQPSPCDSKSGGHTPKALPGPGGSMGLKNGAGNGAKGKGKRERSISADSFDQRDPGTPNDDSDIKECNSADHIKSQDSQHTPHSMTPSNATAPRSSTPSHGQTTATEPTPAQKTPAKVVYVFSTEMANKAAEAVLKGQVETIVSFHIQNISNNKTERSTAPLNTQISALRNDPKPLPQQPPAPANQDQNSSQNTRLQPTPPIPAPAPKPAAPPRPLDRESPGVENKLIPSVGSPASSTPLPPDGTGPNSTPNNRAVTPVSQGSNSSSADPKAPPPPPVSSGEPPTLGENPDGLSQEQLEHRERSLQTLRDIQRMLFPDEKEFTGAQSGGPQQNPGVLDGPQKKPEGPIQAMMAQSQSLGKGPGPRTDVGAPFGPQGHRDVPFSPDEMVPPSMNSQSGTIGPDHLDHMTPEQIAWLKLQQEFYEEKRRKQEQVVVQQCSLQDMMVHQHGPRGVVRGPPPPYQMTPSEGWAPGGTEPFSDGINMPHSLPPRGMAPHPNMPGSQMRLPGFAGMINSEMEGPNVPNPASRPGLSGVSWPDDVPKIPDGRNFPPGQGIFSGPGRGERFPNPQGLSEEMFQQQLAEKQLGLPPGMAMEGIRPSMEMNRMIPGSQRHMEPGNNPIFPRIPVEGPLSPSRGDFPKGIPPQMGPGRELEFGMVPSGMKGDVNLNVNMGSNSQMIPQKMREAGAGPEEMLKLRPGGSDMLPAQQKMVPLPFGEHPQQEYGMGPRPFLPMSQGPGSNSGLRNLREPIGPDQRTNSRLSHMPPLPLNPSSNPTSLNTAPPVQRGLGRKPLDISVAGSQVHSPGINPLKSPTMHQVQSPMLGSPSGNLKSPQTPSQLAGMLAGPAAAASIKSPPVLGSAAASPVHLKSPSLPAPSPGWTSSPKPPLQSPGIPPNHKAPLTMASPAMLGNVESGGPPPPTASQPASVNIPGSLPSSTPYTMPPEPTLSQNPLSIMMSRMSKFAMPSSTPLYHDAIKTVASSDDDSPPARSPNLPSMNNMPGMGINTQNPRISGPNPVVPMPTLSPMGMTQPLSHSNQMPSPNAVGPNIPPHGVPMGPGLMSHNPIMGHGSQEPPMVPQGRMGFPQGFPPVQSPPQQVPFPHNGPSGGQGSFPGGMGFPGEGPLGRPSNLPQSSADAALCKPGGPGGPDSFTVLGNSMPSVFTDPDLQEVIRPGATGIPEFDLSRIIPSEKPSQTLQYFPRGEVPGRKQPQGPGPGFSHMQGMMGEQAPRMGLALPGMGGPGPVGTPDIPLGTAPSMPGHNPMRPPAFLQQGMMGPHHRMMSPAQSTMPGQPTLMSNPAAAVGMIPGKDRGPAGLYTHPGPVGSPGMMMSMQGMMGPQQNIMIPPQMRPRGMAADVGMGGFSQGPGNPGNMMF
# Experiment: Inhibition of C-terminal 6-His-tagged beta-catenin (1 to 781 residues) (unknown origin) expressed in Escherichia coli BL21 (DE3)-N-terminal biotinylated human BCL9 (350 to 375 residues) protein-protein interaction incubated for 1 hr by Alphascreen assay
# Conditions: not given
row,SMILES,IC50 [µM]
1,CCOCCN(Cc1ccc(-c2cn[nH]c2)cc1)C(=O)[C@@H]1CCCN(c2cccc(OC(C)(C)C(=O)N3CCNCC3)c2)C1,2.1
2,CC(C)c1ccc(CNC(=O)[C@@H]2CCCN(c3cccc(OC(C)(C)C(=O)O)c3)C2)cc1,51
3,CC(C)c1ccc(CNC(=O)[C@@H]2CCCN(c3cccc(OC(C)(C)C(=O)N4CCNCC4)c3)C2)cc1,6.4
4,CCN(Cc1ccc(C(C)C)cc1)C(=O)[C@@H]1CCCN(c2cccc(OC(C)(C)C(=O)N3CCNCC3)c2)C1,12

# Further lines, results first:
row,IC50 [µM],SMILES
1,4.5,CC(C)(Oc1cccc(N2CCC[C@@H](C(=O)N(Cc3ccc(-c4ccccc4)cc3)C3CC3)C2)c1)C(=O)N1CCNCC1
2,73,CC(C)(Oc1cccc(N2CCC[C@@H](C(=O)N(Cc3ccc(-c4cccnc4)cc3)C3CC3)C2)c1)C(=O)N1CCNCC1
3,59,CC(C)(Oc1cccc(N2CCC[C@@H](C(=O)N(Cc3ccc(-c4ccccn4)cc3)C3CC3)C2)c1)C(=O)N1CCNCC1
4,8.9,CC(C)(Oc1cccc(N2CCC[C@@H](C(=O)N(Cc3ccc(-c4ccn[nH]4)cc3)C3CC3)C2)c1)C(=O)N1CCNCC1

# Tested on: not listed separately
# Experiment: Half life in human liver microsomes at 1 uM measured up to 60 mins in presence of NADPH by LC-MS/SM analysis
# Type: ADME, Microsome
# Conditions: 1 h
row,t1/2 [min],SMILES
1,28.3,CCN(Cc1ccc(-c2cn[nH]c2)cc1)C(=O)[C@@H]1CCCN(c2cccc(OC(C)(C)C(=O)N3CCNCC3)c2)C1.Cl

# Tested on: not listed separately
# Experiment: Half life in mouse liver microsomes at 1 uM measured up to 60 mins in presence of NADPH by LC-MS/SM analysis
# Type: ADME, Microsome
# Conditions: 1 h
row,t1/2 [min],SMILES
1,7.7,CCN(Cc1ccc(-c2cn[nH]c2)cc1)C(=O)[C@@H]1CCCN(c2cccc(OC(C)(C)C(=O)N3CCNCC3)c2)C1.Cl
2,13,CCN(CC)CCNC(=O)c1c(C)[nH]c(/C=C2\C(=O)Nc3ccc(F)cc32)c1C [SUNITINIB]

# Tested on: not listed separately
# Experiment: Intrinsic clearance in human liver microsomes at 1 uM measured up to 60 mins in presence of NADPH by LC-MS/SM analysis
# Type: ADME, Microsome
# Conditions: not given
row,"CLint at 1 h, 1 µM [µL/min/mg]",SMILES
1,24,CCN(Cc1ccc(-c2cn[nH]c2)cc1)C(=O)[C@@H]1CCCN(c2cccc(OC(C)(C)C(=O)N3CCNCC3)c2)C1.Cl

# Tested on: not listed separately
# Experiment: Intrinsic clearance in mouse liver microsomes at 1 uM measured up to 60 mins in presence of NADPH by LC-MS/SM analysis
# Type: ADME, Microsome
# Conditions: 1 h
row,CLint [µL/min/mg],SMILES
1,90,CCN(Cc1ccc(-c2cn[nH]c2)cc1)C(=O)[C@@H]1CCCN(c2cccc(OC(C)(C)C(=O)N3CCNCC3)c2)C1.Cl
2,53,CCN(CC)CCNC(=O)c1c(C)[nH]c(/C=C2\C(=O)Nc3ccc(F)cc32)c1C [SUNITINIB]

# Tested on: MDA-MB-231
# Experiment: cells
# Conditions: Homo sapiens, MDA-MB-231, 72 h
# Description: Antiproliferative activity against human MDA-MB-231 cells assessed as cell growth inhibition measured after 72 hrs by MTS assay
row,IC50 [µM],SMILES
1,> 100,Cc1cc(-c2ncc(CC(=O)Nc3ccc(-c4cnccn4)cn3)cc2C)ccn1 [WNT-974]
2,7.2,O=C1[C@H](Cc2ccc(O)cc2)N2C(=O)CCN(C(=O)NCc3ccccc3)[C@H]2CN1Cc1cccc2ccccc12

# Tested on: MDA-MB-468
# Experiment: cells
# Conditions: Homo sapiens, MDA-MB-468, 72 h
# Description: Antiproliferative activity against human MDA-MB-468 cells assessed as cell growth inhibition measured after 72 hrs by MTS assay
row,IC50 [µM],SMILES
1,> 100,Cc1cc(-c2ncc(CC(=O)Nc3ccc(-c4cnccn4)cn3)cc2C)ccn1 [WNT-974]
2,31,O=C1[C@H](Cc2ccc(O)cc2)N2C(=O)CCN(C(=O)NCc3ccccc3)[C@H]2CN1Cc1cccc2ccccc12

# Tested on: SW480
# Experiment: cells
# Conditions: Homo sapiens, SW480, 72 h
# Description: Antiproliferative activity against human SW480 cells assessed as cell growth inhibition measured after 72 hrs by MTS assay
row,IC50 [µM],SMILES
1,> 100,Cc1cc(-c2ncc(CC(=O)Nc3ccc(-c4cnccn4)cn3)cc2C)ccn1 [WNT-974]
2,6.1,O=C1[C@H](Cc2ccc(O)cc2)N2C(=O)CCN(C(=O)NCc3ccccc3)[C@H]2CN1Cc1cccc2ccccc12

# Tested on: HCT-116
# Experiment: cells
# Conditions: Homo sapiens, HCT-116, 72 h
# Description: Antiproliferative activity against human HCT-116 cells assessed as cell growth inhibition measured after 72 hrs by MTS assay
row,IC50 [µM],SMILES
1,> 100,Cc1cc(-c2ncc(CC(=O)Nc3ccc(-c4cnccn4)cn3)cc2C)ccn1 [WNT-974]
2,38,O=C1[C@H](Cc2ccc(O)cc2)N2C(=O)CCN(C(=O)NCc3ccccc3)[C@H]2CN1Cc1cccc2ccccc12

# Tested on: MCF-10A
# Experiment: cells
# Conditions: Homo sapiens, 72 h
# Description: Cytotoxicity against human MCF-10A cells assessed as cell growth inhibition measured after 72 hrs by MTS assay
row,SMILES,IC50 [µM]
1,Cc1cc(-c2ncc(CC(=O)Nc3ccc(-c4cnccn4)cn3)cc2C)ccn1 [WNT-974],> 100
2,O=C1[C@H](Cc2ccc(O)cc2)N2C(=O)CCN(C(=O)NCc3ccccc3)[C@H]2CN1Cc1cccc2ccccc12,21

# Target: T1, beta-catenin-B-cell lymphoma 9 protein complex
# Experiment: Inhibition of N-terminal 6-His-tagged beta-catenin (1 to 781 residues) (unknown origin) expressed in Escherichia coli BL21 (DE3)-N-terminal biotinylated human BCL9 (350 to 375 residues) protein-protein interaction incubated for 1 hr by Alphascreen assay
# Conditions: not given
row,SMILES,Ki [µM]
1,CCOCCN(Cc1ccc(-c2cn[nH]c2)cc1)C(=O)[C@@H]1CCCN(c2cccc(OC(C)(C)C(=O)N3CCNCC3)c2)C1,1.9
2,CC(C)c1ccc(CNC(=O)[C@@H]2CCCN(c3cccc(OC(C)(C)C(=O)O)c3)C2)cc1,46
3,CC(C)c1ccc(CNC(=O)[C@@H]2CCCN(c3cccc(OC(C)(C)C(=O)N4CCNCC4)c3)C2)cc1,5.8
4,CCN(Cc1ccc(C(C)C)cc1)C(=O)[C@@H]1CCCN(c2cccc(OC(C)(C)C(=O)N3CCNCC3)c2)C1,11

# The next lines start with the values.
row,Ki [µM],SMILES
1,4,CC(C)(Oc1cccc(N2CCC[C@@H](C(=O)N(Cc3ccc(-c4ccccc4)cc3)C3CC3)C2)c1)C(=O)N1CCNCC1
2,66,CC(C)(Oc1cccc(N2CCC[C@@H](C(=O)N(Cc3ccc(-c4cccnc4)cc3)C3CC3)C2)c1)C(=O)N1CCNCC1
3,54,CC(C)(Oc1cccc(N2CCC[C@@H](C(=O)N(Cc3ccc(-c4ccccn4)cc3)C3CC3)C2)c1)C(=O)N1CCNCC1
4,8,CC(C)(Oc1cccc(N2CCC[C@@H](C(=O)N(Cc3ccc(-c4ccn[nH]4)cc3)C3CC3)C2)c1)C(=O)N1CCNCC1
